Results: patent US6348445B1, “Biologically active peptides with reduced toxicity in animals and a method for preparing same” (priority 1992, dated 2002)
Where two headings read alike, the source gives them in different places. Where a SMILES comes first, the peptide text is derived from it. Where no end group is shown, it is not given here. [ ]: non-standard residue; d: D form. The star is where a group is joined. hArg = N=C(N)NCCCC[C@H](N)C(=O)O; Octanoyl = CCCCCCCC(=O)*

Experiments:
[1] = system: S.aureus strain ATCC 25923; assay: Minimal Inhibitory Concentration, microtiter broth dilution; assay type: cell-based; details: Mueller Hinton broth, 16-20 hours at 37° C.
Text: Table I, which follows, indicates the Minimal Inhibitory Concentration (MIC) in […] of various peptides against S.aureus strain ATCC 25923(S), P. aeruginosa strain ATCC 27853(P), E. coli ATCC strain 25922(E), and C. 4albicans (CA). […] The peptides are unsubstituted at the N-terminal; substituted with an acetyl group at the N-terminal, as indicated by Ac-; substituted with an octanoyl group at the N-terminal, as indicated by Oct-; substituted with spinogosine, as indicated by Sph-; substituted with a succinyl group, as indicated by Suc-; substituted with a hexanoyl group, as indicated by Hex-; substituted with a heptanoyl group, as indicated by Hep-; substituted with a valeryl group, as indicated by Val-; substituted with a myristryl group, as indicated by Myr-; or substituted with an ibuprofyl group, as indicated by Ibu-;
The procedure for the anti-bacterial assay is based upon the guidelines of the National Committee for Clinical Laboratory Standards, Document M7-T2, Volume 8, No. 8, 1988, which document is entirely incorporated herein by reference.
Stock solutions of peptides, with and without the appropriate substitutions, were prepared at a concentration of 512 μg/ml in sterile deionized distilled water and stored at −70° C.
The stock peptide solution was diluted in serial dilutions (1:2) down the wells of a microtiter plate so that the final concentrations of peptides in the wells were 0.25, 0.50, 1, 2, 4, 8, 16, 32, 64, 128 and 256 μg/ml. 1-5×10^5 CFUs/ml of either S. aureus ATCC 25923, E. coli ATCC 25922, P. aeruginosa ATCC 27853, or C. albicans, were added to the wells in full strength Mueller Hinton broth (BBL 11443) from a mid-log culture. The inoculum was standardized spectrophotometrically at 600 nm and was verified by colony counts. The plates were incubated for 16-20 hours at 37° C., and the minimal inhibitory concentration (MIC) for each peptide was determined. Minimal inhibitory concentration is defined as the lowest concentration of peptide which produces a clear well in the microtiter plate. The minimal inhibitory concentration of each of the peptides with and/or without the appropriate substitutions is given in Table I below.

C. albicans = assay type: cell-based
Outline: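 Broth microdilution: mid-log organisms at 1-5×10^5 CFU/ml in Mueller Hinton broth exposed to 2-fold peptide series (0.25–256 μg/ml final). After 16-20 h at 37° C, MIC read as the lowest concentration leaving the well clear.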

[2] = system: P. aeruginosa strain ATCC 27853; assay type: cell-based
Outline: (§1)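 Broth microdilution per NCCLS M7-T2: final peptide levels 0.25 to 256 μg/ml (twofold steps), inoculum 1-5×10^5 CFUs/ml in full-strength Mueller Hinton broth. MIC read as lowest concentration leaving the well clear after 16-20 hours at 37° C.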

[3] = system: E. coli ATCC strain 25922; assay: Minimal Inhibitory Concentration, microtiter broth dilution; assay type: cell-based
Outline: as §1

A. viscosus = assay: anaerobic anti-microbial susceptibility test (MIC); assay type: cell-based; details: 24-48 hours
S. mutans = assay: anaerobic anti-microbial susceptibility test (MIC); assay type: cell-based; design: unit not given here; details: 24-48 hours
P. gingivalis = details: anaerobic, 24-48 hours
[4] = E. coli ATCC strain 25922, Table I
[5] = P. aeruginosa strain ATCC 27853, Table I

| Compound | Minimal Inhibitory Concentration S [1] [µg/mL] | Minimal Inhibitory Concentration CA (C. albicans) [µg/mL] | Minimal Inhibitory Concentration P ([2]; ATCC 27853) [µg/mL] | Minimal Inhibitory Concentration E [3, 4] [µg/mL] | MIC A. viscos (A. viscosus) [μl/ml] | MIC S. mutans (S. mutans) | MIC P. gingivalis (strain) 9-14K-1 (P. gingivalis) | MIC P. gingivalis (strain) 381 (P. gingivalis) [μl/ml] | MIC P. gingivalis (strain) 450 (P. gingivalis) [μl/ml] | MIC P. gingivalis (strain) A7A1-28 (P. gingivalis) [μl/ml] | MIC P. gingivalis (strain) FAY-19M-1 (P. gingivalis) | Minimal Inhibitory Concentration P [2, 5] | Minimal Inhibitory Concentration E ([3]; ATCC strain 25922) [µg/mL] | Minimal Inhibitory Concentration CA (C. albicans; C. albicans, Table I) [µg/mL] |
| --- | --- | --- | --- | --- | --- | --- | --- | --- | --- | --- | --- | --- | --- | --- |
| CCCCCCCC(=O)N[C@@H](CCCCN)C(=O)N[C@@H](Cc1c[nH]c2ccccc12)C(=O)N[C@@H](CCCCN)C(=O)N[C@@H](CC(C)C)C(=O)N[C@@H](Cc1ccccc1)C(=O)N[C@@H](CCCCN)C(=O)N[C@@H](CCCCN)C(=O)N[C@H](C(=O)N[C@@H](CCC(=O)O)C(=O)N[C@@H](CCCCN)C(=O)N[C@H](C(N)=O)C(C)C)[C@@H](C)CC [Oct-(SEQ ID NO: 136)-NH2] (Octanoyl-KWKLFKKIEKV-NH2) | 256 | 256 | 64 | 256 |  |  |  |  |  |  |  |  |  |  |
| H-KIAGKIAKIAGKIAKIAGKIA-NH2 [(SEQ ID NO: 27)-NH2, (Lys Ile Ala Gly Lys Ile Ala)3] |  |  |  |  | 16 | 16 | 8,128 μl/ml | 128 | 4 | 16 | 64 μl/ml | 64,128 μg/ml | 8 |  |
| CCCCCCCC(=O)N[C@@H](CCCCNC(=N)N)C(=O)N[C@H](C(=O)N[C@@H](C)C(=O)NCC(=O)N[C@@H](CCCCNC(=N)N)C(=O)N[C@H](C(=O)N[C@@H](C)C(=O)N[C@@H](CCCCNC(=N)N)C(=O)N[C@H](C(=O)N[C@@H](C)C(=O)NCC(=O)N[C@@H](CCCCNC(=N)N)C(=O)N[C@H](C(=O)N[C@@H](C)C(=O)N[C@@H](CCCCNC(=N)N)C(=O)N[C@H](C(=O)N[C@@H](C)C(=O)NCC(=O)N[C@@H](CCCCNC(=N)N)C(=O)N[C@H](C(=O)N[C@@H](C)C(N)=O)[C@@H](C)CC)[C@@H](C)CC)[C@@H](C)CC)[C@@H](C)CC)[C@@H](C)CC)[C@@H](C)CC [Oct-(SEQ ID NO: 66)-NH2] (Octanoyl-[hArg]IAG[hArg]IA[hArg]IAG[hArg]IA[hArg]IAG[hArg]IA-NH2) |  | 256 | 16 |  | 16 | 32 | 2 μl/ml | 4 | 2 | 8 | 2 μl/ml |  | 8 |  |
| (Lys Ile Ala Lys Lys Ile Ala)3 (KIAKKIAKIAKKIAKIAKKIA-NH2) [(SEQ ID NO. 86)-NH2] |  |  |  |  | 16 | 4 | 8 μl/ml | 8 | 4 | 2 | 8,128 μl/ml |  |  |  |
| CCCCCCCC(=O)N[C@@H](CCCCN)C(=O)N[C@@H](CC(C)C)C(=O)N[C@@H](C)C(=O)N[C@@H](CCCCN)C(=O)N[C@@H](CC(C)C)C(=O)N[C@@H](C)C(=O)N[C@@H](CCCCN)C(=O)N[C@@H](CCCCN)C(=O)N[C@@H](CC(C)C)C(=O)N[C@@H](C)C(N)=O [Oct-(SEQ ID NO: 124)-NH2] (Octanoyl-KLAKLAKKLA-NH2) | 128 |  |  | 256 |  |  |  |  |  |  |  | 64 µg/mL |  | 128 |
| CCCCCCCC(=O)N[C@@H](CCCCN)C(=O)N[C@H](C(=O)N[C@@H](C)C(=O)NCC(=O)N[C@@H](CCCCN)C(=O)N[C@H](C(=O)N[C@@H](C)C(=O)N[C@@H](CCCCN)C(=O)N[C@H](C(=O)N[C@@H](C)C(=O)NCC(=O)N[C@@H](CCCCN)C(=O)N[C@H](C(=O)N[C@@H](C)C(=O)N[C@@H](CCCCN)C(=O)N[C@H](C(=O)N[C@@H](C)C(=O)NCC(=O)N[C@@H](CCCCN)C(=O)N[C@H](C(=O)N[C@@H](C)C(=O)O)[C@@H](C)CC)[C@@H](C)CC)[C@@H](C)CC)[C@@H](C)CC)[C@@H](C)CC)[C@@H](C)CC [Oct-(SEQ ID NO: 27)-OH] (Octanoyl-KIAGKIAKIAGKIAKIAGKIA-OH) |  | 32 | 8 |  | 32 | 16 | 2 μl/ml | 2 | 1 | 1 | 2 μl/ml |  | 4 |  |
| CC[C@H](C)[C@H](NC(=O)[C@H](CCCCNC(=N)N)NC(=O)CNC(=O)[C@H](C)NC(=O)[C@@H](NC(=O)[C@H](CCCCNC(=N)N)NC(=O)[C@H](C)NC(=O)[C@@H](NC(=O)[C@H](CCCCNC(=N)N)NC(=O)CNC(=O)[C@H](C)NC(=O)[C@@H](NC(=O)[C@H](CCCCNC(=N)N)NC(=O)[C@H](C)NC(=O)[C@@H](NC(=O)[C@H](CCCCNC(=N)N)NC(=O)CNC(=O)[C@H](C)NC(=O)[C@@H](NC(=O)[C@@H](N)CCCCNC(=N)N)[C@@H](C)CC)[C@@H](C)CC)[C@@H](C)CC)[C@@H](C)CC)[C@@H](C)CC)C(=O)N[C@@H](C)C(N)=O [(SEQ ID NO: 66)-NH2, (Har Ile Ala Gly Har Ile Ala)3] (H-[hArg]IAG[hArg]IA[hArg]IAG[hArg]IA[hArg]IAG[hArg]IA-NH2) |  | 64 | 32 |  | 8 | 8 | 2 μl/ml | 16 | 4 | 4 | 8 μl/ml |  | 32 |  |
| CCCCCCCC(=O)N[C@@H](CCCCN)C(=O)N[C@H](C(=O)N[C@@H](C)C(=O)N[C@@H](CCCCN)C(=O)N[C@@H](CCCCN)C(=O)N[C@H](C(=O)N[C@@H](C)C(=O)N[C@@H](CCCCN)C(=O)N[C@H](C(=O)N[C@@H](C)C(=O)N[C@@H](CCCCN)C(=O)N[C@@H](CCCCN)C(=O)N[C@H](C(=O)N[C@@H](C)C(N)=O)[C@@H](C)CC)[C@@H](C)CC)[C@@H](C)CC)[C@@H](C)CC [Oct-(SEQ ID NO: 153)-NH2] (Octanoyl-KIAKKIAKIAKKIA-NH2) | 8 |  |  | 32 |  |  |  |  |  |  |  | 8 µg/mL |  | 64 |
| CCCCCCCC(=O)N[C@@H](CCCCN)C(=O)N[C@@H](CCCCN)C(=O)N[C@@H](CC(C)C)C(=O)N[C@@H](C)C(=O)N[C@@H](CCCCN)C(=O)N[C@@H](CC(C)C)C(=O)N[C@@H](C)C(=O)N[C@@H](CCCCN)C(=O)N[C@@H](CCCCN)C(=O)N[C@@H](CC(C)C)C(=O)N[C@@H](C)C(N)=O [Oct-(SEQ ID NO: 123)-NH2] (Octanoyl-KKLAKLAKKLA-NH2) | 32 |  |  | 32 |  |  |  |  |  |  |  | 16 µg/mL |  | 32 |
